Experimental data as given in patent US9592307B2, “Compound and photoacoustic imaging contrast medium containing the compound” (CANON KABUSHIKI KAISHA, priority 2012, dated 2017).
Ends that are not written are not given here.

Experiments:
[1] = rat, ICG administered to the blood alone; cited from earlier work
[2] = Retentivity in blood, Colon 26 tumor-bearing mice; type: in vivo, mouse; conditions: tail vein, 13 nmol dye, 24 hours after administration
Procedure: In order to examine the retentivity in blood and the tumor accumulation of the compound prepared as described above, M5k-ICG, M10k-ICG, M20k-ICG, M30k-ICG, M40k-ICG, and D20k-ICG2 were administered to tail veins of tumor-bearing mice which had been transplanted a Colon 26 cell line. The amount of administration was specified to be 13 nmol in terms of the amount of dye.
A blood sample was taken from a mouse 24 hours after administration, and the blood, 1% Triron, and DMSO were mixed at 2:9:9 in a plastic tube. The amount of dye in the blood was quantified by using IVIS (registered trademark) Imaging System 200 Series (produced by Caliper Life Science Inc.) and measuring the fluorescent intensity in the state of the plastic tube. The proportion of the amount of migration of the dye to the blood relative to the amount (dye 13 nmol) of administration (% injected dose: abbreviated to % ID) per unit weight of the blood is shown in Table 8 as the retentivity of the compound in blood (% ID/g). […]
An intravenous injection of 100 microliters (13 nmol in terms of dye) of M20k-ICGATT into a tumor-bearing mouse model was performed, where a Colon 26 cell was subcutaneously transplanted into the BALB/c Slc-nu/nu mouse. The accumulation in the Colon 26 cell mass and the blood 24 hours after the administration was evaluated by the method described in Example 12.

[3] = system: Colon 26 mouse colon cancer cells containing artificially introduced HER2 genes; test: Tumor accumulation of PEG including capture molecule, Colon 26 (HER2) versus Colon 26 (WT) tumors; type: in vivo; conditions: intravenous, 13 nmol in terms of ICG, 24 hours after administration
Description: In the evaluation of tumor accumulation, female outbred line BALB/c Slc-nu/nu mouse (6 week-old at the time of purchase) (Japan SLC Inc.) was used. The mouse was adapted to an environment in which a diet and drinking water were able to be consumed freely for a week before the mouse was transplanted a tumor, while standard diet and bed were employed. About 1 week before an imaging experiment, 1×10^6 of Colon 26 mouse colon cancer cells (RIKEN) were subcutaneously injected into each of the right shoulder and the right thigh of the mouse and 1×10^6 of Colon 26 mouse colon cancer cells containing artificially introduced HER2 genes were subcutaneously injected into each of the left shoulder and the left thigh of the mouse. All tumors became established until the experiment and the weights of the mice were 17 to 22 g. […] The amount of dye in the cancer tissue was quantified by using IVIS (registered trademark) Imaging System 200 Series (XENOGEN) and measuring the fluorescent intensity of the solution of dye extracted from the tumor tissue and the standard solution for calibration in the state of the plastic tube. […]
In addition, ratios of the amount of accumulation into the Colon 26 mouse colon cancer cells containing artificially introduced HER2 genes relative to the amount of accumulation into the Colon 26 mouse colon cancer cells were calculated and are summarized in Table 12. […]

Row | Retentivity in blood [2] | Compound | Time after administration at which photoacoustic signal is reduced to the same level as that of the blood [1] | Colon26 (HER2)/Colon26 (WT) Ratio of amount of tumor accumulation [3]
1 | 0.16 % ID | CC1(C)C(/C=C/C=C/C=C/C=C2\N(CCCCS(=O)(=O)O)c3ccc4ccccc4c3C2(C)C)=[N+](CCCCS(=O)(=O)[O-])c2ccc3ccccc3c21 [ICG, Indocyanine Green] | several tens of minutes | –
2 | – | pe-PEG20: PEG ME-200MA (MW 20,000) modified with ICG and peptide MARSGLGGKGSC (also: conjugated to PEG ME-200MA (20 kDa) together with ICG) | – | 0.76
3 | – | pe-PEG40: PEG ME-400MA (MW 40,000) modified with ICG and peptide MARSGLGGKGSC (also: conjugated to PEG ME-400MA (40 kDa) together with ICG) | – | 0.88
